Results from ChEMBL document CHEMBL3588836, “Development of Quinoline-2,4(1H,3H)-diones as Potent and Selective Ligands of the Cannabinoid Type 2 Receptor” (J Med Chem, 2015).
pEC50, pIC50: −log10 of the molar value. Activity calls are given as the source filed them. The calls are words filed in the database; no cut-off is given here.

Key:
Cannabinoid receptor 2 [1] = target: T1, Cannabinoid receptor 2 (Homo sapiens, UniProt P34972); assay: Agonist activity at CB2R (unknown origin) CHO cells stably expressing Galpha16 assessed as increase in intracellular calcium level by microplate reader based assay; type: functional, cell-based; details: read-out: EC50
T1 sequence (P34972 whole entry): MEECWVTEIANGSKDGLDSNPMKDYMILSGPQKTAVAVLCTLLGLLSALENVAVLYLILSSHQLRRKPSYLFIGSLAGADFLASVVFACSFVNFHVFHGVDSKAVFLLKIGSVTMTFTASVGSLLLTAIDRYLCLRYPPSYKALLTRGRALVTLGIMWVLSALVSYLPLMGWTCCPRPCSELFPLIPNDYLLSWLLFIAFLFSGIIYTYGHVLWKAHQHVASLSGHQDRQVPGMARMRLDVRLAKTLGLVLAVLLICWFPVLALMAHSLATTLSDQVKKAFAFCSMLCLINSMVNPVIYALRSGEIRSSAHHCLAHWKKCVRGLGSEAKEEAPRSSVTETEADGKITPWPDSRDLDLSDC

CHO [2] = assay: Selectivity index, ratio of EC50 for CB1R (unknown origin) CHO cells stably expressing Galpha16 to EC50 for CB2R (unknown origin) CHO cells stably expressing Galpha16; type: cell-based; details: Homo sapiens
Mus musculus [3] = assay: (§1) Reduction in leukocyte infiltration in spinal cord of C57BL/6 mouse experimental autoimmune encephalomyelitis model of multiple sclerosis at 10 mg/kg, po administered once daily starting from day 3 after immunization until end of experiment and measured on day 21 after immunization by hematoxylin and eosin staining; type: functional, organism-based
Mus musculus [4] = assay: as §1, with “extensive demyelination” for “leukocyte infiltration”, “white matter” for “spinal cord”, “Luxol fast blue” for “hematoxylin and eosin”; type: functional, organism-based
Mus musculus [5] = assay: Reduction in experimental autoimmune encephalomyelitis clinical scores in C57BL/6 mouse experimental autoimmune encephalomyelitis model of multiple sclerosis at 10 mg/kg, po administered once daily starting from day 3 after immunization until end of experiment and measured on day 21 after immunization; type: functional, organism-based
Cannabinoid receptor 2 [6] = target: T1, Cannabinoid receptor 2; assay: Agonist activity at CB2R (unknown origin) CHO cells stably expressing Galpha16 assessed as increase in intracellular calcium level by microplate reader based assay relative to CP55940; type: functional, cell-based
Cannabinoid receptor 1 [7] = target: T2, Cannabinoid receptor 1 (Homo sapiens, UniProt P21554); assay: Agonist activity at CB1R (unknown origin) CHO cells stably expressing Galpha16 assessed as increase in intracellular calcium level by microplate reader based assay; type: functional, cell-based
T2 sequence (P21554 whole entry): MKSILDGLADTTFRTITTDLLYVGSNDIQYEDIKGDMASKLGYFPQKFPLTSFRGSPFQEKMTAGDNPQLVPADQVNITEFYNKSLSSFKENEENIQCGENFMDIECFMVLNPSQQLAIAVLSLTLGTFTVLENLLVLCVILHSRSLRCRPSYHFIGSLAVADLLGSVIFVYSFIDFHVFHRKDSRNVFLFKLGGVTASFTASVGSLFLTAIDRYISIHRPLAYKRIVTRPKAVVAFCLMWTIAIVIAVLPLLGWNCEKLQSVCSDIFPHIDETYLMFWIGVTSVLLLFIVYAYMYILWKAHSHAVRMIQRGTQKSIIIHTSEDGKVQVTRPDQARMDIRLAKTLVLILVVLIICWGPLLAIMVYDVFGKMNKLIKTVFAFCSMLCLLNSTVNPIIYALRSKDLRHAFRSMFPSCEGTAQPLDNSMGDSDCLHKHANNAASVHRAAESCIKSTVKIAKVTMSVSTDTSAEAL

Cannabinoid receptor 1 [8] = target: T2, Cannabinoid receptor 1; type: functional, cell-based, CHO
Cannabinoid receptor 2 [9] = target: T1, Cannabinoid receptor 2; assay: Antagonist activity against CB2R (unknown origin) CHO cells stably expressing Galpha16 assessed as inhibition of CP55940-induced increase in intracellular calcium level pre-treated 10 mins before CP55940 stimulation by microplate reader based assay; type: functional, cell-based
Cannabinoid receptor 2 [10] = target: T1, Cannabinoid receptor 2; assay: Antagonist activity against CB2R (unknown origin) CHO cells stably expressing Galpha16 assessed as inhibition of CP55940-induced increase in intracellular calcium level pre-treated 10 mins before CP55940 stimulation by microplate reader based assay relative to […]; type: functional, cell-based
CHO [11] = assay: Selectivity index, ratio of IC50 for CB1R (unknown origin) CHO cells stably expressing Galpha16 to IC50 for CB2R (unknown origin) CHO cells stably expressing Galpha16; type: cell-based; details: Homo sapiens

SMILES	pEC50 (Cannabinoid receptor 2 [1])	Ratio EC50 (CHO [2])	inhibition (Mus musculus [3])	inhibition (Mus musculus [4])	inhibition (Mus musculus [5])	Emax (Cannabinoid receptor 2 [6]) [%]	pEC50 (Cannabinoid receptor 1 [7])	pIC50 (Cannabinoid receptor 1 [8])	pIC50 (Cannabinoid receptor 2 [9])	Emax (Cannabinoid receptor 2 [10]) [%]	Ratio IC50 (CHO [11])
CCCCN1C(=O)/C(=C/NC2CCCCC2)C(=O)c2cccc(C)c21	7.03	> 108	Active	Active	Dose-dependent effect	116	< 5.00	–	–	–	–
CCCCCN1C(=O)/C(=C/NC2CCCCC2)C(=O)c2cc(OC)cc(C)c21	–	–	–	–	–	–	–	< 5.00	7.03	106	> 107
